Test results reported in patent publication US8309730B2, “Nonsteroidal compounds useful as modulators of glucocorticoid receptor AP-1 and/or NF-kappab acitivity and use thereof” (Bristol-Myers Squibb Company, priority 2007, dated 2012).

Tested on: AP-1 induced transcriptional activity
Experiment: Cellular Transrepressional Assay (AP-1 luciferase reporter in A549 cells)
Assay type: cell-based
Settings: Homo sapiens, A549 cells stably transfected with pAP-1-Luc, 10 ng/ml PMA, 7 hours; for Emax: maximum inhibition, read-out: AP-1 Max % inh (Cellular Transrepression Assay); for EC50: read-out: AP-1 EC50, nM (Cellular Transrepression Assay)
Method: To measure the ability of test molecules to inhibit AP-1 induced transcriptional activity we utilized an A549 cell which was stably transfected with a plasmid containing 7×AP-1 DNA binding sites (pAP-1-Luc plasmid, Stratagene Co. La Jolla, Calif.) followed by the gene for luciferase. Cells were activated with 10 ng/ml of phorbol myristic acid (PMA) plus or minus test molecules for 7 hours. After 7 hours a luciferase reagent was added to measure luciferase enzymatic activity in the cell. After a 10 minute incubation of luciferase reagent with cells, luminescence was measured in a TopCount luminescence counter. Repression of AP-1 activity was calculated as the percentage decrease in the signal induced by PMA alone. Test molecules were analyzed in the concentration range from 0.1 nM to 40 μM. EC50 values were determined by using standard curve fitting methods such as Excel fit (Microsoft Co.).

| SMILES | Emax [%] | EC50 [nM] |
| --- | --- | --- |
| C[C@]12Cn3cnc(-c4ccccc4)c3C=C1CCC[C@@H]2[C@](C)(O)c1csc2ccccc12 (racemic) [Example 15] | 42.7 | 145 |
| C[C@]12Cn3cnc(-c4ccccc4)c3C=C1CCC[C@@H]2[C@](C)(O)c1csc2ccccc12 (single isomer, unassigned) [Example 31] | 41.2 | 181 |
| C[C@]12Cn3cnc(-c4ccc(F)cc4)c3C=C1CCC[C@@H]2[C@](C)(O)c1cccs1 [Example 1, (S)-1-((5aR,6S)-1-(4-Fluorophenyl)-5a-methyl-5,5a,6,7,8,9-hexahydroimidazo[1,5-b]isoquinolin-6-yl)-1-(thiophen-2-yl)ethanol] | 38.1 | 21.4 |
| CN(C)C(=O)c1ccc([C@@](C)(O)[C@H]2CCCC3=Cc4c(-c5ccc(F)cc5)ncn4C[C@@]32C)s1 [Example 3, 5-((S)-1-((5aR,6S)-1-(4-Fluorophenyl)-5a-methyl-5,5a,6,7,8,9-hexahydroimidazo[1,5-b]isoquinolin-6-yl)-1-hydroxyethyl)-N,N-dimethylthiophene-2-carboxamide] | 29.5 | 267 |
| C[C@]12Cn3cnc(-c4ccc(F)cc4)c3C=C1CCC[C@@H]2CCNc1nncs1 [Example 5, N-(2-((5aR,6R)-1-(4-Fluorophenyl)-5a-methyl-5,5a,6,7,8,9-hexahydroimidazo[1,5-b]isoquinolin-6-yl)ethyl)-1,3,4-thiadiazol-2-amine] | 22.6 | 98 |
| C[S+]([O-])c1cccc([C@@](C)(O)[C@H]2CCCC3=Cc4c(-c5ccc(F)cc5)ncn4C[C@@]32C)c1 (stereo partly drawn) [Example 8b, (1S)-1-((5aR,6S)-1-(4-fluorophenyl)-5a-methyl-5,5a,6,7,8,9-hexahydroimidazo[1,5-b]isoquinolin-6-yl)-1-(3-(methylsulfinyl)phenyl)ethanol] | 40.7 | 236 |
| CC(C)(O)c1cccc([C@@](C)(O)[C@H]2CCCC3=Cc4c(-c5ccc(F)cc5)ncn4C[C@@]32C)c1 [Example 9, 2-(3-((S)-1-((5aR,6S)-1-(4-Fluorophenyl)-5a-methyl-5,5a,6,7,8,9-hexahydroimidazo[1,5-b]isoquinolin-6-yl)-1-hydroxyethyl)phenyl)propan-2-ol] | 34.3 | 144 |
| C[C@]12Cn3cnc(-c4ccc(F)cc4)c3C=C1CCC[C@@H]2[C@](C)(O)C(F)(F)F [Example 10, (S)-1,1,1-Trifluoro-2-((5aR,6S)-1-(4-fluorophenyl)-5a-methyl-5,5a,6,7,8,9-hexahydroimidazo[1,5-b]isoquinolin-6-yl)propan-2-ol] | 31.3 | 30.9 |
| C[C@]12Cn3cnc(-c4ccc(F)cc4)c3C=C1CCC[C@@H]2[C@](C)(O)c1ccc(F)cc1 [Example 48] | 35.6 | 11.9 |
| C[C@]12Cn3cnc(-c4ccc(F)cc4)c3C=C1CCC[C@@H]2[C@](C)(O)c1ccc(Cl)cc1 [Example 53] | 44.6 | 63.2 |
| C[C@]12Cn3cnc(-c4ccc(F)cc4)c3C=C1CCC[C@@H]2[C@](C)(O)c1ccsc1 [Example 54] | 42.7 | 4.67 |
| C[C@]12Cn3cnc(-c4ccc(F)cc4)c3C=C1CCC[C@@H]2[C@](C)(O)Cc1ccc(F)cc1 [Example 55] | 53.7 | 84.2 |
| C[C@]12Cn3cnc(-c4ccc(F)cc4)c3C=C1CCC[C@@H]2[C@](C)(O)c1ccc(F)c(Cl)c1 [Example 56] | 39.6 | 19.3 |
| C=CC[C@@](C)(O)[C@H]1CCCC2=Cc3c(-c4ccc(F)cc4)ncn3C[C@@]21C [Example 57] | 55.9 | 56.6 |
| C[C@]12Cn3cnc(-c4ccc(F)cc4)c3C=C1CCC[C@@H]2[C@](C)(O)C1CC1 [Example 58] | 35.8 | 36.8 |
| Cc1ccc([C@@](C)(O)[C@H]2CCCC3=Cc4c(-c5ccc(F)cc5)ncn4C[C@@]32C)s1 [Example 60] | 48.3 | 31.3 |
| Cc1ccsc1[C@@](C)(O)[C@H]1CCCC2=Cc3c(-c4ccc(F)cc4)ncn3C[C@@]21C [Example 61] | 58.8 | 11.6 |
| C[C@]12Cn3cnc(-c4ccc(F)cc4)c3C=C1CCC[C@@H]2[C@](C)(O)c1ccc(Cl)s1 [Example 62] | 61.2 | 5.48 |

| SMILES | Emax [%] | EC50 [nM] |
| --- | --- | --- |
| CC(C)(C)C[C@@](C)(O)[C@H]1CCCC2=Cc3c(-c4ccc(F)cc4)ncn3C[C@@]21C [Example 63] | 47.5 | 31.5 |
| Cc1ccc([C@@](C)(O)[C@H]2CCCC3=Cc4c(-c5ccc(F)cc5)ncn4C[C@@]32C)cc1 [Example 64] | 41.9 | 4.26 |
| Cc1cccc([C@@](C)(O)[C@H]2CCCC3=Cc4c(-c5ccc(F)cc5)ncn4C[C@@]32C)c1 [Example 65] | 46.7 | 9.75 |
| Cc1ccccc1[C@@](C)(O)[C@H]1CCCC2=Cc3c(-c4ccc(F)cc4)ncn3C[C@@]21C [Example 66] | 42.1 | 4.6 |
| C[C@]12Cn3cnc(-c4ccc(F)cc4)c3C=C1CCC[C@@H]2[C@](C)(O)C1CCCCC1 [Example 67] | 44.3 | 1.99 |
| CCCC[C@@](C)(O)[C@H]1CCCC2=Cc3c(-c4ccc(F)cc4)ncn3C[C@@]21C [Example 68] | 40.8 | 33.9 |
| C[C@]12Cn3cnc(-c4ccc(F)cc4)c3C=C1CCC[C@@H]2[C@](C)(O)c1ccccc1 [Example 71] | 32.5 | 3.02 |
| Cc1ccc([C@@](C)(O)[C@H]2CCCC3=Cc4c(-c5ccc(F)cc5)ncn4C[C@@]32C)cc1F [Example 74] | 34.5 | 14.3 |
| CCc1ccccc1[C@@](C)(O)[C@H]1CCCC2=Cc3c(-c4ccc(F)cc4)ncn3C[C@@]21C [Example 75] | 47.1 | 41.6 |
| C[C@]12Cn3cnc(-c4ccc(F)cc4)c3C=C1CCC[C@@H]2[C@](C)(O)c1cccc(C#N)c1 [Example 83] | 35.6 | 19.2 |
| CSc1cccc([C@@](C)(O)[C@H]2CCCC3=Cc4c(-c5ccc(F)cc5)ncn4C[C@@]32C)c1 [Example 89] | 45.3 | 20.8 |
| COC(=O)c1ccc([C@@](C)(O)[C@H]2CCCC3=Cc4c(-c5ccc(F)cc5)ncn4C[C@@]32C)s1 [Example 92] | 47.4 | 24.7 |
| C[C@]12Cn3cnc(-c4ccc(F)cc4)c3C=C1CCC[C@@H]2[C@](C)(O)C1CCOCC1 [Example 96] | 42 | 56.5 |
| COc1cccc([C@@](C)(O)[C@H]2CCCC3=Cc4c(-c5ccc(F)cc5)ncn4C[C@@]32C)c1 [Example 97] | 39.6 | 95 |
| C[C@]12Cn3cnc(-c4ccc(F)cc4)c3C=C1CCC[C@@H]2[C@](C)(O)c1ccc(C(=O)O)s1 [Example 99] | 43.9 | 472 |
| CNC(=O)c1ccc([C@@](C)(O)[C@H]2CCCC3=Cc4c(-c5ccc(F)cc5)ncn4C[C@@]32C)s1 [Example 100] | 30.7 | 573 |
| CC1(C)COC2(CCCC3=Cc4c(-c5ccc(F)cc5)ncn4CC32C)OC1 (stereo not shown) [Example 104, 1′-(4-Fluorophenyl)-5,5,5a′-trimethyl-5a′,7′,8′,9′-tetrahydro-5′H-spiro[[1,3]dioxane-2,6′-imidazo[1,5-b]isoquinoline]] | 32.4 | 877 |
